# Laboratory results: US20100150944A1, “METHODS AND COMPOSITIONS FOR DIAGNOSIS AND TREATMENT OF DEPRESSION AND ANXIETY” (MODGENE, LLC, priority 2007, published 2010)
# Assays:
# [1] = tested on: mice; assay: tail-suspension test; conditions: mouse, in vivo
# Protocol: An additional procedure for monitoring the effects of antidepressants involves suspending the mice by the tail from a lever and recording movements of the animal. The total duration of the test (usually about 6 minutes) can be divided into periods of agitation and immobility. Antidepressants will generally decrease the duration of immobility (Stem et al., Psychopharmacology 85(3) 367-70). A computerized version of this test, referred to as […]-TST has been developed and is well known to those of skill in that art as a primary screening test for antidepressant activity (Stem et al., Prog. Neuropsychpharmacol. Biol. Psychiatry 11(6)659-671, 1987). Additional devices for monitoring depression also are known to those of skill in the art (Nomura et al., Yakubutsu Seishiiz Kodo 12(5)207-13, 1992).
# As described above, the murine responses in forced swim and tail suspension tests provides a model for determining depression. We tested C57BL/6J and DBA/2J mice in the forced-swim and tail-suspension tests. […] Test duration was 6 minutes and immobility, defined as the absence of all movement except minor movement required for the mouse to keep its head above the surface, was measured during the last 4 minutes. […] The duration of the test was 6 minutes and immobility, defined as the absence of all but respiratory movements, was measured during the last 4 minutes. […]
# [2] = tested on: DBA/2J mice; assay: forced-swim test, DBA/2J mice; format: in vivo, mouse; conditions: DBA/2J mice versus C57BL/6J mice
# Protocol: As described above, the murine responses in forced swim and tail suspension tests provides a model for determining depression. We tested C57BL/6J and DBA/2J mice in the forced-swim and tail-suspension tests. In the forced-swim test, mice were gently placed in a clear plastic cylinder, diameter of 16 cm, height 25 cm, filled with 10 cm of clear water at 25° C. Test duration was 6 minutes and immobility, defined as the absence of all movement except minor movement required for the mouse to keep its head above the surface, was measured during the last 4 minutes. In the tail-suspension test, mice were suspended from a metal rod mounted 50 cm above the surface by fastening the tail to the rod with adhesive tape. The duration of the test was 6 minutes and immobility, defined as the absence of all but respiratory movements, was measured during the last 4 minutes. During the last 4 minutes of a 6-minute forced swim, unmedicated inbred C57BL/6J mice spent 152 seconds of the possible 240 seconds immobile (FIG. 2). In contrast, inbred DBA/2J mice had baseline (unmedicated) immobilities of 47 seconds (see FIG. 2). […] We investigated the hypothesis that the differences between these two inbred mouse lines that result in differing baseline immobilities in the forced-swim test at least in part arise from differences in the amount of mRNA that accumulates from specific genes. […]
# [3] = tested on: C57BL/6J mice; assay: forced-swim test, C57BL/6J mice; format: in vivo, mouse; conditions: for immobility in forced-swim test: last 4 minutes of 6-minute test
# Protocol: Briefly, in the Porsolt forced swim test, swim sessions are conducted by placing animals in containers with a level of water selected to be deep enough so that the animal cannot touch the bottom with its hind limbs or tail, nor can it escape. Two swim sessions are conducted, an initial 15 minute pretest one day prior to administration of the antidepressant drug and a second 5 minute test after administration of the drug (e.g., infusion of the drug into the midbrain) is begun. Each animal's 5 minute test sessions are videotaped for scoring later. The amount of time the animal spends active (swimming, exploring or trying to escape) and the time the rat is immobile (not struggling and making only those movements necessary to keep its head above water) is measured. Drugs with anti-depressant like activity decrease the immobility time.
# As described above, the murine responses in forced swim and tail suspension tests provides a model for determining depression. We tested C57BL/6J and DBA/2J mice in the forced-swim and tail-suspension tests. In the forced-swim test, mice were gently placed in a clear plastic cylinder, diameter of 16 cm, height 25 cm, filled with 10 cm of clear water at 25° C. Test duration was 6 minutes and immobility, defined as the absence of all movement except minor movement required for the mouse to keep its head above the surface, was measured during the last 4 minutes. In the tail-suspension test, mice were suspended from a metal rod mounted 50 cm above the surface by fastening the tail to the rod with adhesive tape. The duration of the test was 6 minutes and immobility, defined as the absence of all but respiratory movements, was measured during the last 4 minutes. During the last 4 minutes of a 6-minute forced swim, unmedicated inbred C57BL/6J mice spent 152 seconds of the possible 240 seconds immobile (FIG. 2). In contrast, inbred DBA/2J mice had baseline (unmedicated) immobilities of 47 seconds (see FIG. 2). […] We investigated the hypothesis that the differences between these two inbred mouse lines that result in differing baseline immobilities in the forced-swim test at least in part arise from differences in the amount of mRNA that accumulates from specific genes.
# We purchased some of the compound (Toronto Research Chemicals Inc., 2 Brisbane Rd., North York, Ontario, Canada M3J 2J8) and dissolved it in phosphate-buffered saline (PBS) containing 2.5 percent methanol.
# When plain PBS/methanol solution (without 3Ac-SL0101) was administered to C57BL/6J mice, their immobility was 127 seconds. When the solution containing the 3Ac-SL0101 compound was administered in a very low dose, their immobility was reduced to 78 seconds, indicative of an antidepressant-like effect. […] When the compound was administered to DBA/2J mice, it was effective at an approximately 10-fold lower dose than in C57BL/6J mice, highly consistent with the notion that it is functioning by reducing the activity of rpS6.
# [4] = tested on: p90 ribosomal S6 kinase, or RSK; conditions: cultured tumor cells; cited from earlier work
# [5] = molecular target: RSK2 (Homo sapiens, UniProt P51812); conditions: cited from earlier work
# [6] = tested on: p90 RSK; conditions: cited from earlier work
# [7] = tested on: DBA/2J mice; conditions: baseline 100 seconds; cited from earlier work
# [8] = tested on: C57BL/6J mice; conditions: 10 mg/kg, last 4 minutes of 6-minute forced swim, unmedicated 143 seconds; cited from earlier work
# Sequence of RSK2 (P51812 whole entry): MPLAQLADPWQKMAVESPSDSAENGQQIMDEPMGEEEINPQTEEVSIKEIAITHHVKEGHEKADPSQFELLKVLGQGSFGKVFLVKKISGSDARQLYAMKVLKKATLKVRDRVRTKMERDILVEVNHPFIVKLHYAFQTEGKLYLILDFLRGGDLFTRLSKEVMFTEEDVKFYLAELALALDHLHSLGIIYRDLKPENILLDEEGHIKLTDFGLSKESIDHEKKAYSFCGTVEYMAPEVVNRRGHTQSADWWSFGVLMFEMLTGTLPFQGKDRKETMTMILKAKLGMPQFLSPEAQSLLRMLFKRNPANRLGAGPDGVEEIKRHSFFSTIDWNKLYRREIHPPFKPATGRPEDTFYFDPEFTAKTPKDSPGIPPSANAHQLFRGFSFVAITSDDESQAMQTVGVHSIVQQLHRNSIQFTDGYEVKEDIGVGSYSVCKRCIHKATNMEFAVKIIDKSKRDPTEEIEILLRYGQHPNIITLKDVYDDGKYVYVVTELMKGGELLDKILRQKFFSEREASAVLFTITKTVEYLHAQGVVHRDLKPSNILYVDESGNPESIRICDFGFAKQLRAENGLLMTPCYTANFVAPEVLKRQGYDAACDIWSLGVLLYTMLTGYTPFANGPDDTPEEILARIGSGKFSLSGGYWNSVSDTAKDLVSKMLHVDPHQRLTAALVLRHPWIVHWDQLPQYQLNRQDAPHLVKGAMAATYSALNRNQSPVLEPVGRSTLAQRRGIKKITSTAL
compound,measurement,setting,value
CC(=O)O[C@@H]1[C@@H](OC(C)=O)[C@H](C)O[C@@H](Oc2c(-c3ccc(O)cc3)oc3cc(O)cc(O)c3c2=O)[C@@H]1OC(C)=O [3Ac-SL0101],immobility in tail-suspension test,[1],reduced immobility
same,effective dose in DBA/2J mice relative to C57BL/6J mice,[2],approximately 10 fold lower dose
same,immobility in forced-swim test,[3]; 20-fold higher dose,0 s
same,dose response of immobility in forced-swim test,"[3]; varying dosages, FIG. 3",monotonic dose-response effect
same,immobility in forced-swim test,"[3]; very low dose, PBS/methanol control 127 seconds",78 s
same,inhibition of RSK activity,[4],inhibits the activity of this kinase
O=c1c(O)c(-c2ccc(O)cc2)oc2cc(O)cc(O)c12 [kaempferol],immobility time in forced-swim test,"[3]; dose dependent manner, within minutes after intraperitoneal injection",reduce immobility time
same,inhibition of RSK2,[5],inhibitor of the RSK2
CC(C)CCN1c2nc(Nc3cc(F)c(O)c(F)c3)ncc2N(C)C(=O)C1C (stereo not shown) [BI-D1870],inhibition of p90 RSK,[6],specific inhibitor of the p90 RSK
same,time of immobility in forced swim test,[3]; FIG. 4,substantial reduction
CNCCC(Oc1ccc(C(F)(F)F)cc1)c1ccccc1 (stereo not shown) [fluoxetine],immobility in forced swim,[7],50 s
CNCCCN1c2ccccc2CCc2ccccc21 [desipramine],immobility in forced swim,[8],100 s
same,immobility in forced swim,[7],50 s
